Measured values taken from ChEMBL document CHEMBL3046319, “PCR-RFLP detection of the E198A mutation conferring resistance to benzimidazoles in field isolates of Monilinia laxa from Greece” (Crop Prot, 2012).
Values after ≈ are worked out from the molar mass of the structure shown. Active and inactive are the calls of the source. The calls are words filed in the database; no cut-off is given here.

Columns and labels:
Monilinia laxa [1] = assay: Fungicidal activity against Monilinia laxa isolate MLC4 assessed as reduction in mycelial growth rate at 1 to 10 ug/ml at 31 degC after 5 days; type: functional, organism-based
Monilinia laxa [2] = assay: Fungicidal activity against Monilinia laxa isolate MLC3 assessed as reduction in mycelial growth rate at 25 degC after 4 days; type: functional, organism-based; settings: isolate MLC3, 96 h
Monilinia laxa [3] = assay: Fungicidal activity against Monilinia laxa isolate MLBO3 assessed as reduction in mycelial growth rate at 25 degC after 4 days; type: functional, organism-based; settings: isolate MLBO3, 96 h
Monilinia laxa [4] = assay: Fungicidal activity against Monilinia laxa isolate MLP4 assessed as mean mycelial colony diameter at 25 degC after 4 days; type: functional
Monilinia laxa [5] = assay: Fungicidal activity against Monilinia laxa isolate MLBO4 assessed as reduction in mycelial growth rate at 25 degC after 4 days; type: functional, organism-based; settings: isolate MLBO4, 96 h
Monilinia laxa [6] = assay: Fungicidal activity against Monilinia laxa isolate MLG6 assessed as reduction in mycelial growth rate at 1 to 10 ug/ml at 31 degC after 5 days; type: functional, organism-based
Monilinia laxa [7] = assay: Fungicidal activity against Monilinia laxa isolate MLX3 assessed as reduction in mycelial growth rate at 25 degC after 4 days; type: functional, organism-based; settings: isolate MLX3, 96 h
Monilinia laxa [8] = assay: Fungicidal activity against Monilinia laxa isolate MLG2 assessed as reduction in mycelial growth rate at 1 to 10 ug/ml at 31 degC after 5 days; type: functional, organism-based
Monilinia laxa [9] = assay: Fungicidal activity against Monilinia laxa isolate MLKS1 assessed as reduction in mycelial growth rate at 25 degC after 4 days; type: functional, organism-based; settings: isolate MLKS1, 96 h
Monilinia laxa [10] = assay: Fungicidal activity against Monilinia laxa isolate MLG5 assessed as reduction in mycelial growth rate at 1 to 10 ug/ml at 31 degC after 5 days; type: functional, organism-based
Monilinia laxa [11] = assay: Fungicidal activity against Monilinia laxa isolate MLX5 assessed as reduction in mycelial growth rate at 1 to 10 ug/ml at 25 to 28 degC; type: functional, organism-based
Monilinia laxa [12] = assay: Fungicidal activity against Monilinia laxa isolate MLX3 assessed as reduction in mycelial growth rate at 1 to 10 ug/ml at 31 degC after 5 days; type: functional, organism-based
Monilinia laxa [13] = assay: Fungicidal activity against Monilinia laxa isolate MLBO2 assessed as virulence in prune fruits assessed as virulence treated 10 min prior to mycelial inoculation at 24 degC after 10 days relative to isolate MLX1by pathogenicity bioassay; type: functional
Monilinia laxa [14] = assay: Fungicidal activity against Monilinia laxa isolate MLNS2 assessed as reduction in mycelial growth rate at 1 to 10 ug/ml at 31 degC after 5 days; type: functional, organism-based
Monilinia laxa [15] = assay: Fungicidal activity against Monilinia laxa isolate MLB1 assessed as reduction in mycelial growth rate at 1 to 10 ug/ml at 25 to 28 degC; type: functional, organism-based
Monilinia laxa [16] = assay: Fungicidal activity against Monilinia laxa isolate MLAl8 assessed as reduction in mycelial growth rate at 1 to 10 ug/ml at 31 degC after 5 days; type: functional, organism-based
Monilinia laxa [17] = assay: Fungicidal activity against Monilinia laxa isolate MLG1 in prune fruits assessed as virulence treated 10 min prior to mycelial inoculation at 24 degC after 10 days relative to isolate MLX1by pathogenicity bioassay; type: functional
Monilinia laxa [18] = assay: Fungicidal activity against Monilinia laxa isolate MLAl8 assessed as reduction in mycelial growth rate at 1 to 10 ug/ml at 28 degC after 8 days; type: functional, organism-based
Monilinia laxa [19] = assay: Fungicidal activity against Monilinia laxa isolate MLK24 assessed as reduction in mycelial growth rate at 25 degC after 4 days; type: functional, organism-based; settings: isolate MLK24, 96 h
Monilinia laxa [20] = assay: Fungicidal activity against Monilinia laxa isolate MLK5 assessed as reduction in mycelial growth rate at 1 to 10 ug/ml at 25 to 28 degC; type: functional, organism-based
Monilinia laxa [21] = assay: Fungicidal activity against Monilinia laxa isolate MLK1 assessed as reduction in mycelial growth rate at 1 to 10 ug/ml at 28 degC after 8 days; type: functional, organism-based
Monilinia laxa [22] = assay: Fungicidal activity against Monilinia laxa isolate MLKS2 assessed as reduction in mycelial growth rate at 25 degC after 4 days; type: functional, organism-based; settings: isolate MLKS2, 96 h
Monilinia laxa [23] = assay: Fungicidal activity against Monilinia laxa isolate MLX5 assessed as mean number of conidia produced in the colony at 25 degC after 12 days by haemocytometer; type: functional
Monilinia laxa [24] = assay: Fungicidal activity against Monilinia laxa isolate MLNS1 assessed as reduction in mycelial growth rate at 1 to 10 ug/ml at 25 to 28 degC; type: functional, organism-based
Monilinia laxa [25] = assay: Fungicidal activity against Monilinia laxa isolate MLNS2 assessed as reduction in mycelial growth rate at 25 degC after 4 days; type: functional, organism-based; settings: isolate MLNS2, 96 h
Monilinia laxa [26] = assay: Fungicidal activity against Monilinia laxa isolate MLC3 assessed as reduction in mycelial growth rate at 1 to 10 ug/ml at 25 to 28 degC; type: functional, organism-based
Monilinia laxa [27] = assay: Fungicidal activity against Monilinia laxa isolate MLAl8 assessed as reduction in mycelial growth rate at 25 degC after 4 days; type: functional, organism-based; settings: isolate MLAl8, 96 h
Monilinia laxa [28] = assay: Fungicidal activity against Monilinia laxa isolate MLA1 assessed as mean mycelial colony diameter at 25 degC after 4 days; type: functional
Monilinia laxa [29] = assay: Fungicidal activity against Monilinia laxa isolate MLG4 assessed as reduction in mycelial growth rate at 25 degC after 4 days; type: functional, organism-based; settings: isolate MLG4, 96 h
Monilinia laxa [30] = assay: Fungicidal activity against Monilinia laxa isolate MLC2 assessed as reduction in mycelial growth rate at 1 to 10 ug/ml at 28 degC after 8 days; type: functional, organism-based
Monilinia laxa [31] = assay: Fungicidal activity against Monilinia laxa isolate MLG1 assessed as mean mycelial colony diameter at 25 degC after 4 days; type: functional
Monilinia laxa [32] = assay: Fungicidal activity against Monilinia laxa isolate MLNS2 assessed as reduction in mycelial growth rate at 1 to 10 ug/ml at 28 degC after 8 days; type: functional, organism-based
Monilinia laxa [33] = assay: Fungicidal activity against Monilinia laxa isolate MLC2 assessed as mean mycelial colony diameter at 25 degC after 4 days; type: functional
Monilinia laxa [34] = assay: Fungicidal activity against Monilinia laxa isolate MLX5 assessed as virulence in prune fruits assessed as virulence treated 10 min prior to mycelial inoculation at 24 degC after 10 days relative to isolate MLX1by pathogenicity bioassay; type: functional
Monilinia laxa [35] = assay: Fungicidal activity against Monilinia laxa isolate MLK5 assessed as reduction in mycelial growth rate at 25 degC after 4 days; type: functional, organism-based; settings: isolate MLK5, 96 h
Monilinia laxa [36] = assay: Fungicidal activity against Monilinia laxa isolate MLBO5 assessed as mean mycelial colony diameter at 25 degC after 4 days; type: functional
Monilinia laxa [37] = assay: Fungicidal activity against Monilinia laxa isolate MLK7 assessed as reduction in mycelial growth rate at 1 to 10 ug/ml at 31 degC after 5 days; type: functional, organism-based
Monilinia laxa [38] = assay: Fungicidal activity against Monilinia laxa isolate MLK1 assessed as reduction in mycelial growth rate at 1 to 10 ug/ml at 31 degC after 5 days; type: functional, organism-based
Monilinia laxa [39] = assay: Fungicidal activity against Monilinia laxa isolate MLG1 assessed as mean number of conidia produced in the colony at 25 degC after 12 days by haemocytometer; type: functional
Monilinia laxa [40] = assay: Fungicidal activity against Monilinia laxa isolate MLK5 assessed as reduction in mycelial growth rate at 1 to 10 ug/ml at 28 degC after 8 days; type: functional, organism-based
Monilinia laxa [41] = assay: Fungicidal activity against Monilinia laxa isolate MLC6 assessed as reduction in mycelial growth rate at 1 to 10 ug/ml at 31 degC after 5 days; type: functional, organism-based
Monilinia laxa [42] = assay: Fungicidal activity against Monilinia laxa isolate MLBO5 assessed as reduction in mycelial growth rate at 1 to 10 ug/ml at 31 degC after 5 days; type: functional, organism-based

Which results are given for `COC(=O)Nc1nc2ccccc2[nH]1` [CARBENDAZIM]?
inhibition (Monilinia laxa [1]): Active; EC50 (Monilinia laxa [2]): > 50 µg/mL; EC50 (Monilinia laxa [3]): 0.05 µg/mL (≈ 0.262 µM); Activity (Monilinia laxa [4]): 32.5 mm; EC50 (Monilinia laxa [5]): 0.05 µg/mL (≈ 0.262 µM); inhibition (Monilinia laxa [6]): Active; EC50 (Monilinia laxa [7]): > 50 µg/mL; inhibition (Monilinia laxa [8]): Active; EC50 (Monilinia laxa [9]): 0.11 µg/mL (≈ 0.575 µM); inhibition (Monilinia laxa [10]): Active; inhibition (Monilinia laxa [11]): inactive; inhibition (Monilinia laxa [12]): Active; Activity (Monilinia laxa [13]): 95%; inhibition (Monilinia laxa [14]): Active; inhibition (Monilinia laxa [15]): inactive; inhibition (Monilinia laxa [16]): Active; Activity (Monilinia laxa [17]): 100%; inhibition (Monilinia laxa [18]): inactive; EC50 (Monilinia laxa [19]): 0.02 µg/mL (≈ 0.105 µM); inhibition (Monilinia laxa [20]): inactive; inhibition (Monilinia laxa [21]): inactive; EC50 (Monilinia laxa [22]): 0.01 µg/mL (≈ 0.0523 µM); Activity (Monilinia laxa [23]): 4.4 /cm2; inhibition (Monilinia laxa [24]): inactive; EC50 (Monilinia laxa [25]): > 50 µg/mL; inhibition (Monilinia laxa [26]): inactive; EC50 (Monilinia laxa [27]): > 50 µg/mL; Activity (Monilinia laxa [28]): 27.1 mm; EC50 (Monilinia laxa [29]): 0.11 µg/mL (≈ 0.575 µM); inhibition (Monilinia laxa [30]): inactive; Activity (Monilinia laxa [31]): 25.55 mm; inhibition (Monilinia laxa [32]): inactive; Activity (Monilinia laxa [33]): 29.5 mm; Activity (Monilinia laxa [34]): 96.29%; EC50 (Monilinia laxa [35]): > 50 µg/mL; Activity (Monilinia laxa [36]): 29.5 mm; inhibition (Monilinia laxa [37]): Active; inhibition (Monilinia laxa [38]): Active; Activity (Monilinia laxa [39]): 5.85 /cm2; inhibition (Monilinia laxa [40]): inactive; inhibition (Monilinia laxa [41]): Active; inhibition (Monilinia laxa [42]): Active
